From patent US7208517B1, “Endothelin antagonists” (Abbott Labortories, priority 1994, dated 2007)

Molecular target: T1, ETA Receptor (Rattus norvegicus, UniProt P26684)
T1 construct: endogenous in cells; host or cells: MMQ rat pituitary cells (membranes)
T1 sequence (P26684 21-426): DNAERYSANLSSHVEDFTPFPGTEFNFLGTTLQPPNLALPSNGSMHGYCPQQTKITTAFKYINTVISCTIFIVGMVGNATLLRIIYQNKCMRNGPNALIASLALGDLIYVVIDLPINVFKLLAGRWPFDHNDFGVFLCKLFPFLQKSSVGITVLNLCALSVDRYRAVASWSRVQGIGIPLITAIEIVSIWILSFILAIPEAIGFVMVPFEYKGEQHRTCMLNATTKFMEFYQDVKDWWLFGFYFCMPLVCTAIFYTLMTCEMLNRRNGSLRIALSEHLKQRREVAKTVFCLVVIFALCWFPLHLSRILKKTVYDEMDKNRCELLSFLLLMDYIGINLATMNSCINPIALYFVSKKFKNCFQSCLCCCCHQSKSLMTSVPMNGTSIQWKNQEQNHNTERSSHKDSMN
Experiment: [125I]ET-1 binding to membranes from MMQ cells (ETA receptor binding assay, Table 4)
Details: test compound at 1 μM; 0.1 nM [125I]ET-1, MMQ cell membranes, 4 hours at 25° C.
Description: Preparation of Membranes from MMQ Cells:
MMQ [MacLeod/MacQueen/Login cell line (prolactin secreting rat pituitary cells)] cells from 150 mL culture flasks were collected by centrifugation (1000×g for 10 min) and then homogenized in 25 mL of 10 mM Hepes (pH 7.4) containing 0.25 M sucrose and protease inhibitors [3 mM EDTA, 0.1 mM PMSF, and 5 μg/mL Pepstatin A] by a micro ultrasonic cell disrupter (Kontes). The mixture was centrifuged at 1000×g for 10 min. The supernatant was collected and centrifuged at 60,000×g for 60 min. The precipitate was resuspended in 20 mM Tris, pH 7.4 containing the above protease inhibitors and centrifuged again. The final pellet was resuspended in 20 mM Tris, pH 7.4 containing protease inhibitors and stored at −80° C. until used. Protein content was determined by the Bio-Rad dye-binding protein assay.
Binding assays were performed in 96-well microtiter plates pretreated with 0.1% BSA. […] After incubation, unbound ligands were separated from bound ligands by a vacuum filtration method using glass-fiber filter strips in PHD cell harvesters (Cambridge Technology, Inc., MA), followed by washing the filter strips with saline (1 mL) for three times. Nonspecific binding was determined in the presence of 1 μM ET-1.

| Structure (SMILES) | % Inhibition of ETA at 1 μM [%] |
| --- | --- |
| CCCCN(CCCC)C(=O)C(C)N1CC(c2ccc3c(c2)OCO3)C(C(=O)O)C1c1ccc(OC)cc1 (racemic) [Example 91C, trans,trans-2-(4-Methoxyphenyl)-4-(1,3-benzodioxol-5-yl)-1-((N,N-dibutylamino)carbonyl-1-(RS)-ethyl)pyrrolidine-3-carboxylic acid] | 91.6 |
| COc1ccc(C2C(C(=O)O)C(c3ccc4c(c3)OCO4)CN2CC(=O)N2CC[C@@H]3CCCC[C@H]3C2)cc1 (relative stereo) [Example 293, trans—trans-2-(4-Methoxyphenyl)-4-(1,3-benzodioxol-5-yl)-1-[decahydroisoquinolin-2-carbonylmethyl]-pyrrolidine-3-carboxylic acid] | 89.8 |
| CCCN(CCN1C[C@H](c2ccc3c(c2)OCO3)[C@@H](C(=O)O)[C@@H]1c1ccc(OC)cc1)S(=O)(=O)CC(C)C (relative stereo) [Example 303, trans,trans-2-(4-Methoxyphenyl)-4-(1,3-benzodioxol-5-yl)-1-(2-(N-propyl-N-(2-methylpropanesulfonyl)amino)ethyl)-pyrrolidine-3-carboxylic acid] | 87.2 |
| CCCN(CCN1C[C@H](c2ccc3c(c2)OCO3)[C@@H](C(=O)O)[C@@H]1c1ccc(OC)cc1)S(=O)(=O)N(C)C (relative stereo) [Example 315, trans,trans-2-(4-Methoxyphenyl)-4-(1,3-benzodioxol-5-yl)-1-(2-(N-propyl-N-dimethylsulfamoylamino)ethyl)-pyrrolidine-3-carboxylic acid] | 82.7 |
| COc1ccc(C2C(C(=O)O)C(c3ccc4c(c3)OCO4)CN2CC(N)=O)cc1 (stereo not drawn) [Example 2, trans,trans-2-(4-Methoxyphenyl)-4-(1,3-benzodioxol-5-yl)-1-(aminocarbonylmethyl)-pyrrolidine-3-carboxylic acid] | 58.4 |
| COc1ccc(C2C(C(=O)O)C(c3ccc4c(c3)OCO4)CN2Cc2ccc(F)cc2)cc1 (stereo not drawn) [Example 3, trans,trans-2-(4-Methoxyphenyl)-4-(1,3-benzodioxol-5-yl)-1-(4-fluorobenzyl)-pyrrolidine-3-carboxylic acid] | 42.2 |
| CCOCCN1CC(c2ccc3c(c2)OCO3)C(C(=O)O)C1c1ccc(OC)cc1 (stereo not drawn) [Example 4, trans,trans-2-(4-Methoxyphenyl)-4-(1,3-benzodioxol-5-yl)-1-(2-ethoxyethyl)-pyrrolidine-3-carboxylic acid] | 78.2 |
| CCCOCCN1CC(c2ccc3c(c2)OCO3)C(C(=O)O)C1c1ccc(OC)cc1 (stereo not drawn) [Example 5, trans,trans-2-(4-Methoxyphenyl)-4-(1,3-benzodioxol-5-yl)-1-(2-propoxyethyl)-pyrrolidine-3-carboxylic acid] | 95.1 |
| COCCOCCN1CC(c2ccc3c(c2)OCO3)C(C(=O)O)C1c1ccc(OC)cc1 (stereo not drawn) [Example 6B, trans,trans-2-(4-Methoxyphenyl)-4-(1,3-benzodioxol-5-yl)-1-[2-(2-methoxyethoxy)ethyl]-pyrrolidine-3-carboxylic acid] | 34.9 |
| COc1ccc(C2C(C(=O)O)C(c3ccc4c(c3)OCO4)CN2CCc2ccccn2)cc1 (stereo not drawn) [Example 7, trans,trans-2-(4-Methoxyphenyl)-4-(1,3-benzodioxol-5-yl)-1-[2-(2-pyridyl)ethyl]-pyrrolidine-3-carboxylic acid] | 63.4 |
| CCCCNC(=O)N1CC(c2ccc3c(c2)OCO3)C(C(=O)O)C1c1ccc(OC)cc1 (stereo not drawn) [Example 9, trans,trans-2-(4-Methoxyphenyl)-4-(1,3-benzodioxole-5-yl)-1-(butylaminocarbonyl)-pyrrolidine-3-carboxylic acid] | 69.2 |
| COc1ccc(NC(=O)N2CC(c3ccc4c(c3)OCO4)C(C(=O)O)C2c2ccc(OC)cc2)cc1 (stereo not drawn) [Example 10, trans,trans-2-(4-Methoxyphenyl)-4-(1,3-benzodioxol-5-yl)-1-(4-methoxyphenylaminocarbonyl)-3-pyrrolidine-3-carboxylic acid] | 66.1 |
| COc1ccc(C2C(C(=O)O)C(c3ccc4c(c3)OCO4)CN2CC(=O)N2CCCC2)cc1 (stereo not drawn) [Example 17, trans,trans-2-(4-Methoxyphenyl)-4-(1,3-benzodioxol-5-yl)-1-(pyrrolidin-1-ylcarbonylmethyl)-pyrrolidine-3-carboxylic acid] | 73.9 |
| COc1ccc(C2C(C(=O)O)C(c3ccc4c(c3)OCO4)CN2CCOc2ccccc2)cc1 (stereo not drawn) [Example 21, trans,trans-2-(4-Methoxyphenyl)-4-(1,3-benzodioxol-5-yl)-1-(2-phenoxyethyl)-pyrrolidine-3-carboxylic acid] | 56.3 |
| CCCCOCCN1CC(c2ccc3c(c2)OCO3)C(C(=O)O)C1c1ccc(OC)cc1 (stereo not drawn) [Example 23, trans,trans-2-(4-Methoxyphenyl)-4-(1,3-benzodioxol-5-yl)-1-(2-butoxyethyl)-pyrrolidine-3-carboxylic acid] | 85.9 |
| COCCOCCN1CC(c2ccc(OC)cc2)C(C(=O)O)C1c1ccc2c(c1)OCO2 (stereo not drawn) [Example 26, trans,trans-2-(1,3-Benzodioxol-5-yl)-4-(4-methoxyphenyl)-1-[2-(2-methoxyethoxy)ethyl)]-pyrrolidine-3-carboxylic acid] | 83.0 |
| CCCCOCCN1CC(c2ccc(OC)cc2)C(C(=O)O)C1c1ccc2c(c1)OCO2 (stereo not drawn) [Example 27, trans,trans-2-(1,3-Benzodioxol-5-yl)-4-(4-methoxyphenyl)-1-(butoxyethyl)-pyrrolidine-3-carboxylic acid] | 61.2 |
| CCCN(C)C(=O)CN1CC(c2ccc3c(c2)OCCO3)C(C(=O)O)C1c1ccc(OC)cc1 (stereo not drawn) [Example 29, trans,trans-2-(4-Methoxyphenyl)-4-(1,4-benzodioxan-6-yl)-1-(N-methyl-N-propylaminocarbonylmethyl)-pyrrolidine-3-carboxylic acid] | 85.3 |
| COc1ccc(C2C(C(=O)O)C(c3ccc4c(c3)OCO4)CN2CC(=O)N(CCC(C)C)CCC(C)C)cc1 (stereo not drawn) [Example 34, trans,trans-2-(4-Methoxyphenyl)-4-(1,3-benzodioxol-5-yl)-1-(N,N-diisoamylaminocarbonylmethyl)-pyrrolidine-3carboxylic acid] | 95.5 |
| CCCCCN(CCCCC)C(=O)CN1CC(c2ccc3c(c2)OCO3)C(C(=O)O)C1c1ccc(OC)cc1 (stereo not drawn) [Example 35, trans,trans-2-(4-Methoxyphenyl)-4-(1,3-benzodioxol-5-yl)-1-(N,N-dipentylaminocarbonylmethyl)-pyrrolidine-3-carboxylic acid] | 91.8 |
| COCCN(CCOC)C(=O)CN1CC(c2ccc3c(c2)OCO3)C(C(=O)O)C1c1ccc(OC)cc1 (stereo not drawn) [Example 36, trans,trans-2-(4-Methoxyphenyl)-4-(1,3-benzodioxol-5-yl)-1-(N,N-di(2-methoxyethyl)aminocarbonylmethyl)-pyrrolidine-3-carboxylic acid] | 94.5 |
| CCCC#CCN1CC(c2ccc3c(c2)OCO3)C(C(=O)O)C1c1ccc(OC)cc1 (stereo not drawn) [Example 37, trans,trans-2-(4-Methoxyphenyl)-4-(1,3-benzodioxol-5-yl)-1-(2-hexynyl)-pyrrolidine-3-carboxylic acid] | 47.9 |
| CCCN(CC1CC1)C(=O)CN1CC(c2ccc3c(c2)OCO3)C(C(=O)O)C1c1ccc(OC)cc1 (stereo not drawn) [Example 38, trans,trans-2-(4-Methoxyphenyl)-4-(1,3-benzodioxol-5-yl)-1-(N-cyclopropylmethyl-N-propylaminocarbonylmethyl)-pyrrolidine-3-carboxylic acid] | 100.0 |
| CCCCCN(C)C(=O)CN1CC(c2ccc3c(c2)OCO3)C(C(=O)O)C1c1ccc(OC)cc1 (stereo not drawn) [Example 39, trans,trans-2-(4-Methoxyphenyl)-4-(1,3-benzodioxol-5-yl)-1-(N-methyl-N-pentylaminocarbonylmethyl)-pyrrolidine-3-carboxylic acid] | 83.6 |
| C#CCN(C)C(=O)CN1CC(c2ccc3c(c2)OCO3)C(C(=O)O)C1c1ccc(OC)cc1 (stereo not drawn) [Example 41, trans,trans-2-(4-Methoxyphenyl)-4-(1,3-benzodioxol-5-yl)-1-(N-methyl-N-(2-propynyl)aminocarbonylmethyl)-pyrrolidine-3-carboxylic acid] | 89.9 |
| CCCCCCN(C)C(=O)CN1CC(c2ccc3c(c2)OCO3)C(C(=O)O)C1c1ccc(OC)cc1 (stereo not drawn) [Example 42, trans,trans-2-(4-Methoxyphenyl)-4-(1,3-benzodioxol-5-yl)-1-(N-methyl-N-(n-hexyl)aminocarbonylmethyl)-pyrrolidine-3-carboxylic acid] | 95.2 |
